Test results taken from patent US10654834B2 (Venenum Biodesign, LLC, priority 2016, dated 2020).

How the values were obtained:
human TGR5 receptor = biological target: T1, human TGR5 receptor (Homo sapiens, UniProt Q8TDU6); experiment: Human TGR5 cAMP production assay (hTGR5-CHO cells, DiscoveRx cAMP XS+ kit); format: cell-based; settings: luminescent cAMP assay, read-out: Human TGR5 Lum. cAMP Activity (EC50)
T1 construct: host or cells: CHO-K1 (hTGR5-CHO)
T1 sequence (Q8TDU6 1-330): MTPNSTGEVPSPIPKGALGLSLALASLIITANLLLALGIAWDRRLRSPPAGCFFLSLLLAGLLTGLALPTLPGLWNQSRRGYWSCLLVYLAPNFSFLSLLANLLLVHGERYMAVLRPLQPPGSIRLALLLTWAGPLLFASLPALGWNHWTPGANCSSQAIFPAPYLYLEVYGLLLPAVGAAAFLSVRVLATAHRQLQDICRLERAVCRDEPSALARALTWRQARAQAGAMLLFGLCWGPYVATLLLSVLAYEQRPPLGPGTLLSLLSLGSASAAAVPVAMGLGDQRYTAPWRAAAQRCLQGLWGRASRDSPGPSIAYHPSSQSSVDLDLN
Outline: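 EC50 values come from luminescent enzyme-complementation cAMP detection, read after overnight incubation. Beforehand, hTGR5-expressing CHO-K1 cells with IBMX and anti-cAMP antibody were exposed 1 h at room temperature to serially diluted (half-log) compounds.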

mouse TGR5 receptor = biological target: T2, mouse TGR5 receptor (Mus musculus, UniProt Q80SS6); experiment: Mouse TGR5 HTRF cAMP production assay (HEK293-EBNA cells, Cisbio cAMP HiRange kit); format: cell-based; settings: HEK293-EBNA cells overexpressing mouse TGR5, HTRF cAMP assay
T2 construct: host or cells: HEK293-EBNA (293 c18, ATCC CRL10852)
T2 sequence (Q80SS6 1-329): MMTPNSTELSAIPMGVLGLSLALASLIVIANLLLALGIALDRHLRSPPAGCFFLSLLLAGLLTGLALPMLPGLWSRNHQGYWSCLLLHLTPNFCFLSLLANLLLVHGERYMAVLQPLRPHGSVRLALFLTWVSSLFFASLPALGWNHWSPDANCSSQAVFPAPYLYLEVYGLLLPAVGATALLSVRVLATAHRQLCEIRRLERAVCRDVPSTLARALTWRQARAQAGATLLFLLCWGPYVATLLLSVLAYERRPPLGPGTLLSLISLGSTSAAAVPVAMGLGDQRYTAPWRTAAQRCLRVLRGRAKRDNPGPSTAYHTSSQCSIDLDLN
Outline: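 cAMP accumulation was read by competitive HTRF after 1 h room-temperature compound treatment, with a further 1 h conjugate incubation. Cells were mouse TGR5-overexpressing HEK293-EBNA in serum-free DMEM plus 500 μM IBMX. Compounds ran as 12-point half-log series in duplicate, and EC50 values were reported.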

| Structure (SMILES) | EC50 (human TGR5 receptor) [µM] | EC50 (mouse TGR5 receptor) [µM] |
| --- | --- | --- |
| O=C(O)CNS(=O)(=O)CCNC(=O)CCCC1CCN(c2cc(N3CCC[C@H]3C(=O)NCCc3ccc(C(F)(F)F)cc3)nc(C(F)(F)F)n2)CC1 [Compound 114, (S)-2-(2-(4-(1-(2-(trifluoromethyl)-6-(2-((4-(trifluoromethyl)phenethyl)-carbamoyl)-pyrrolidin-1-yl)pyrimidin-4-yl)piperidin-4-yl)butanamido)ethyl-sulfonamido)acetic acid] | < 0.1 | < 0.1 |
| N#Cc1ccc(CCNC(=O)[C@@H]2CCCN2c2cc(N3CCC(CCCC(=O)NCCS(=O)(=O)NCC(=O)O)CC3)nc(C(F)(F)F)n2)cc1 [Compound 115, (S)-2-(2-(4-(1-(6-(2-((4-cyanophenethyl)carbamoyl)pyrrolidin-1-yl)-2-(trifluoromethyl)pyrimidin-4-yl)piperidin-4-yl)butanamido)-ethylsulfonamido)acetic acid] | < 0.1 | < 0.1 |
| N#Cc1ccc(CCNC(=O)[C@@H]2CCCN2c2cc(N3CCC(CCCNC(=O)NCCS(N)(=O)=O)CC3)nc(C(F)(F)F)n2)cc1 [Compound 120, (S)-N-(4-cyanophenethyl)-1-(6-(4-(3-(3-(2-sulfamoylethyl)ureido)propyl)piperidin-1-yl)-2-(trifluoromethyl)pyrimidin-4-yl)pyrrolidine-2-carboxamide] | < 0.1 | < 0.1 |
| N#Cc1ccc(CCNC(=O)[C@@H]2CCCN2c2cc(N3CCC(CCCNC(=O)NCC(=O)O)CC3)nc(C(F)(F)F)n2)cc1 [Compound 121, (S)-2-(3-(3-(1-(6-(2-((4-cyanophenethyl)carbamoyl)pyrrolidin-1-yl)-2-(trifluoromethyl)pyrimidin-4-yl)piperidin-4-yl)propyl)ureido)acetic acid] | 0.1 to 0.999 | < 0.1 |
| N#Cc1ccc(CCNC(=O)[C@@H]2CCCN2c2cc(N3CCC(CCNC(=O)[C@@H](N)CS(=O)(=O)O)CC3)nc(C(F)(F)F)n2)cc1 [Compound 123, (R)-2-amino-3-((2-(1-(6-((S)-2-((4-cyanophenethyl)carbamoyl)pyrrolidin-1-yl)-2-(trifluoromethyl)pyrimidin-4-yl)piperidin-4-yl)ethyl)amino)-3-oxopropane-1-sulfonic acid] | < 0.1 | < 0.1 |
| N#Cc1ccc(CCNC(=O)[C@@H]2CCCN2c2cc(N3CCC(CCNS(=O)(=O)CCNC(=O)[C@@H](N)CS(=O)(=O)O)CC3)nc(C(F)(F)F)n2)cc1 [Compound 125, (R)-2-amino-3-((2-(N-(2-(1-(6-((S)-2-((4-cyanophenethyl)carbamoyl)-pyrrolidin-1-yl)-2-(trifluoromethyl)-pyrimidin-4-yl)piperidin-4-yl)ethyl)sulfamoyl)ethyl)amino)-3-oxopropane-1-sulfonic acid] | < 0.1 | < 0.1 |
| N#Cc1ccc(CCNC(=O)[C@@H]2CCCN2c2cc(N3CCC(CCNC(=N)N)CC3)nc(C(F)(F)F)n2)cc1 [Compound 126, (S)—N-(4-cyanophenethyl)-1-(6-(4-(2-guanidinoethyl)piperidin-1-yl)-2-(trifluoromethyl)pyrimidin-4-yl)pyrrolidine-2-carboxamide] | < 0.1 | < 0.1 |
| N#Cc1ccc(CCNC(=O)[C@@H]2CCCN2c2cc(N3CCC(CCCC(=O)NCCNC(=N)N)CC3)nc(C(F)(F)F)n2)cc1 [Compound 128, (S)-N-(4-cyanophenethyl)-1-(6-(4-(4-((2-guanidinoethyl)amino)-4-oxobutyl)piperidin-1-yl)-2-(trifluoromethyl)pyrimidin-4-yl)pyrrolidine-2-carboxamide] | < 0.1 | < 0.1 |
| N#Cc1ccc(CCNC(=O)[C@@H]2CCCN2c2cc(N3CCC(CCCC(=O)NCCCC[C@H](NC(=N)N)C(=O)O)CC3)nc(C(F)(F)F)n2)cc1 [Compound 129, (S)-6-(4-(1-(6-((S)-2-((4-cyanophenethyl)carbamoyl)pyrrolidin-1-yl)-2-(trifluoromethyl)pyrimidin-4-yl)piperidin-4-yl)butanamido)-2-guanidinohexanoic acid] | < 0.1 | < 0.1 |
| N#Cc1ccc(CCNC(=O)[C@@H]2CCCN2c2cc(N3CCC(CCNS(=O)(=O)CCNC(=N)N)CC3)nc(C(F)(F)F)n2)cc1 [Compound 130, (S)-N-(4-cyanophenethyl)-1-(6-(4-(2-(2-guanidinoethylsulfonamido)ethyl)piperidin-1-yl)-2-(trifluoromethyl)pyrimidin-4-yl)pyrrolidine-2-carboxamide] | < 0.1 | < 0.1 |
| N=C(N)N[C@@H](CCC(=O)NCCCC1CCN(c2cc(N3CCC[C@H]3C(=O)NCCc3ccc(C(F)(F)F)cc3)nc(C(F)(F)F)n2)CC1)C(=O)O [Compound 133, (S)-2-guanidino-5-oxo-5-((3-(1-(2-(trifluoromethyl)-6-((S)-2-((4-(trifluoromethyl)phenethyl)carbamoyl)pyrrolidin-1-yl)pyrimidin-4-yl)piperidin-4-yl)propyl)amino)pentanoic acid] | < 0.1 | < 0.1 |
| N#Cc1ccc(CCNC(=O)[C@@H]2CCCN2c2cc(N3CCC(OCC#CCS(=O)(=O)O)CC3)nc(C(F)(F)F)n2)cc1 [Compound 134, (S)-4-((1-(6-(2-((4-cyanophenethyl)carbamoyl)pyrrolidin-1-yl)-2-(trifluoromethyl)pyrimidin-4-yl)piperidin-4-yl)oxy)but-2-yne-1-sulfonic acid] | < 0.1 | < 0.1 |
| N#Cc1ccc(CCNC(=O)[C@@H]2CCCN2c2cc(N3CCC(CCCC(=O)O)CC3)cc(C(F)(F)F)n2)cc1 [Compound 197, (S)-4-(1-(2-(2-((4-cyanophenethyl)carbamoyl)pyrrolidin-1-yl)-6-(trifluoromethyl)pyridin-4-yl)piperidin-4-yl)butanoic acid] | < 0.1 | < 0.1 |
| N#Cc1ccc(CCNC(=O)[C@@H]2CCCN2c2cc(N3CCC(CCCC(=O)NCS(=O)(=O)O)CC3)cc(C(F)(F)F)n2)cc1 [Compound 198, (S)-(4-(1-(2-(2-((4-cyanophenethyl)carbamoyl)pyrrolidin-1-yl)-6-(trifluoromethyl)pyridin-4-yl)piperidin-4-yl)butanamido)methanesulfonic acid] | < 0.1 | < 0.1 |
| N#Cc1ccc(CCNC(=O)[C@@H]2CCCN2c2cc(N3CCC(CCCC(=O)NCCS(=O)(=O)O)CC3)cc(C(F)(F)F)n2)cc1 [Compound 199, (S)-2-(4-(1-(2-(2-((4-cyanophenethyl)carbamoyl)pyrrolidin-1-yl)-6-(trifluoromethyl)pyridin-4-yl)piperidin-4-yl)butanamido)ethanesulfonic acid] | < 0.1 | < 0.1 |
| N#Cc1ccc(CCNC(=O)[C@@H]2CCCN2c2cc(N3CCC(CCCC(=O)N[C@@H](CCCNC(=N)N)C(=O)N[C@@H](CCCNC(=N)N)C(=O)O)CC3)cc(C(F)(F)F)n2)cc1 [Compound 202, (S)-2-((S)-2-(4-(1-(2-((S)-2-((4-cyanophenethyl)carbamoyl)pyrrolidin-1-yl)-6-(trifluoromethyl)pyridin-4-yl)piperidin-4-yl)butanamido)-5-guanidinopentanamido)-5-guanidinopentanoic acid] | < 0.1 | < 0.1 |
| N#Cc1ccc(CCNC(=O)[C@@H]2CCCN2c2cc(-c3ccc(CO)cc3)cc(C(F)(F)F)n2)cc1 [Compound 204, (S)—N-(4-cyanophenethyl)-1-(4-(4-(hydroxymethyl)phenyl)-6-(trifluoromethyl)pyridin-2-yl)pyrrolidine-2-carboxamide] | < 0.1 | < 0.1 |
| N#Cc1ccc(CCNC(=O)[C@@H]2CCCN2c2cc(-c3ccc(CCC(=O)NCS(=O)(=O)O)cc3)cc(C(F)(F)F)n2)cc1 [Compound 206, (S)-(3-(4-(2-(2-((4-cyanophenethyl)carbamoyl)pyrrolidin-1-yl)-6-(trifluoromethyl)pyridin-4-yl)phenyl)propanamido)methanesulfonic acid] | < 0.1 | < 0.1 |
| N#Cc1ccc(CCNC(=O)[C@@H]2CCN2c2cc(N3CCC(CCO)CC3)nc(C(F)(F)F)n2)cc1 [Compound 223, (S)-N-(4-cyanophenethyl)-1-(6-(4-(2-hydroxyethyl)piperidin-1-yl)-2-(trifluoromethyl)pyrimidin-4-yl)azetidine-2-carboxamide] | < 0.1 | < 0.1 |
| N#Cc1ccc(CCNC(=O)[C@@H]2CCN2c2cc(N3CCC(CCCC(=O)O)CC3)nc(C(F)(F)F)n2)cc1 [Compound 231, (S)-4-(1-(6-(2-((4-cyanophenethyl)carbamoyl)azetidin-1-yl)-2-(trifluoromethyl)pyrimidin-4-yl)piperidin-4-yl)butanoic acid] | < 0.1 | < 0.1 |
